Measurements taken from patent US20080213810A1, “Screening Method for Hiv Rt Inhibitors” (priority 2005, published 2008).

Biological target: HIV RT (Human immunodeficiency virus type 1 group M subtype B, UniProt P04585)
Test: Enzyme kinetics studies (1/v versus 1/[dTTP])
Format: biochemical
Conditions: 40-3 μM dTTP, 2-0 μM compound 1, poly(rA)oligo(dT); lines cross at the Y-axis intercept
Experimental: The enzyme kinetics studies were carried out using a protocol involving a 4×5 matrix of varying substrate and inhibitor concentrations over ranges of 40-3 μM of dTTP and 2-0 μM of compound 1.
The reaction mixtures (50 μl) further contained 50 mM Tris.HCl (pH 7.8), 5 mM dithiothreitol, […], 500 μM EDTA, 150 mM KCl, 5 mM MgCl2, 0.15 mM of the template/primer poly(rA)oligo(dT) and 0.06% Triton X-100. The reaction mixtures were incubated at 37° C. for 15 min, at which time 100 μl of calf thymus DNA ([…]), 2 ml of Na4P207 (0.1 M in 1 M HCl), and 2 ml of trichloroacetic acid (10% v/v) were added. The solutions were kept on ice for 30 min, after which the acid-insoluble material was washed and analyzed for radioactivity. When the reciprocal of the reaction velocity (1/v) is plotted against the reciprocal of the substrate concentration (1/[dTTP]) in the presence of different concentrations of compound 1, the graph (See FIG. 1) is obtained.
Since all the lines cross at the intercept with the Y-axis it is clear that this compound has a competitive mode of HIV RT inhibition.

For Cn1c2ccccc2c2c1cc(C#N)c(=O)n2-c1ccc([N+](=O)[O-])cc1 [Compound 1], which “mode of HIV RT inhibition” value is on record?
The value was “competitive”.
